Data reported in ChEMBL document CHEMBL4433266, “Design, synthesis and antimycobacterial activity of benzoxazinone derivatives and open-ring analogues: Preliminary data and computational analysis” (Bioorg Med Chem Lett, 2019).
≈ marks a conversion by molar mass, not a printed value.

Assays:
[1] = tested on: Mycobacterium tuberculosis; test: Antimycobacterial activity against Mycobacterium tuberculosis H37Ra ATCC 25197 assessed as inhibition of bacterial cell growth incubated for 7 days by resazurin microtiter assay; assay type: functional; settings: H37Ra ATCC 25197, 168 h
[2] = Selectivity index, ratio of CC50 for African green monkey Vero cells to MIC for antimycobacterial activity against Mycobacterium tuberculosis H37Ra ATCC 25197; assay type: toxicity; settings: read-out: Selectivity Index
[3] = Cytotoxicity in African green monkey Vero cells assessed as reduction in cell viability incubated for 72 hrs by MTT assay; assay type: cell-based; settings: chlorocebus sabaeus
[4] = tested on: Mycobacterium tuberculosis; test: Antimycobacterial activity against Mycobacterium tuberculosis H37Rv ATCC 27294 assessed as inhibition of bacterial cell growth incubated for 7 days by resazurin microtiter assay; assay type: functional; settings: H37Rv ATCC 27294, 168 h

For CN1C(=O)/C(=C/c2ccccc2Cl)Oc2ccccc21, the MIC [1] was 224 µM (≈ 64 µg/mL).

For Cc1cccc(C(=O)/C=C2\Nc3ccccc3OC2=O)c1, the selectivity ratio [2] was greater than 125, the CC50 at 72 h [3] was greater than 1790 µM and the MIC [1] was 14 µM (≈ 3.91 µg/mL).

With Cc1ccccc1C(=O)/C=C1\Nc2ccccc2OC1=O the selectivity ratio [2] was greater than 125, the CC50 at 72 h [3] was greater than 1790 µM and the MIC [1] was 14 µM (≈ 3.91 µg/mL).

With COC(=O)/C=C1\Nc2ccccc2OC1=O the selectivity ratio [2] was greater than 125, the CC50 at 72 h [3] was greater than 2280 µM and the MIC [4] was 4.5 µM (≈ 0.986 µg/mL). It also gave an MIC [1] of 18 µM (≈ 3.95 µg/mL).

Molecule O=C1Oc2ccccc2N/C1=C\C(=O)c1ccccc1Cl has a selectivity ratio [2] of 118, a CC50 at 72 h [3] of 1570 µM and an MIC [1] of 13 µM (≈ 3.9 µg/mL).

O=C1Nc2ccccc2O/C1=C\c1ccccc1 showed an MIC [1] of 270 µM (≈ 64.1 µg/mL).

Molecule O=C1Oc2ccccc2N/C1=C\C(=O)c1cccs1 has a selectivity ratio [2] greater than 250, a CC50 at 72 h [3] greater than 1840 µM and an MIC [4] of 14.7 µM (≈ 3.99 µg/mL). It also gave an MIC [1] of 7.3 µM (≈ 1.98 µg/mL).

For O=C1Oc2ccccc2N/C1=C\C(=O)c1ccccc1, the selectivity ratio [2] was greater than 62, the CC50 at 72 h [3] was greater than 942 µM and the MIC [1] was 15 µM (≈ 3.98 µg/mL).

In the case of COC(=O)CC1Nc2ccccc2OC1=O (stereo unspecified), the selectivity ratio [2] is reported as 43, the CC50 at 72 h [3] is reported as 1550 µM and the MIC [1] is reported as 36 µM (≈ 7.96 µg/mL).

Cc1ccc(C(=O)/C=C2\Nc3ccccc3OC2=O)cc1 gave a selectivity ratio [2] of 115, a CC50 at 72 h [3] of 1650 µM and an MIC [1] of 14 µM (≈ 3.91 µg/mL).

Molecule O=C(NNC(=O)c1ccncc1)C(=O)Nc1ccc(Cl)cc1O has a selectivity ratio [2] of 1560, a CC50 at 72 h [3] of 1160 µM and an MIC [4] of 3.1 µM (≈ 1.04 µg/mL). The MIC [1] was 0.75 µM (≈ 0.251 µg/mL).

COC(=O)/C=C1\Nc2cc(Cl)ccc2OC1=O showed a selectivity ratio [2] of 26, a CC50 at 72 h [3] of 1630 µM and an MIC [4] of 31 µM (≈ 7.86 µg/mL). It also gave an MIC [1] of 63 µM (≈ 16 µg/mL).

In the case of O=C1Oc2ccccc2N/C1=C\C(=O)c1c[nH]c2ccccc12, the selectivity ratio [2] is reported as greater than 250, the CC50 at 72 h [3] is reported as greater than 1640 µM and the MIC [4] is reported as 3.3 µM (≈ 1 µg/mL). It also gave an MIC [1] of 6.5 µM (≈ 1.98 µg/mL).

With O=C1Oc2ccccc2N/C1=C\C(=O)c1ccc(-c2ccccc2)cc1 the selectivity ratio [2] was greater than 30, the CC50 at 72 h [3] was greater than 366 µM and the MIC [1] was 12 µM (≈ 4.1 µg/mL).

O=C1/C(=C/c2ccccc2)Oc2ccccc2N1Cc1ccccc1 gave an MIC [1] of 196 µM (≈ 64.2 µg/mL).

In the case of CN1C(=O)/C(=C/c2ccccc2)Oc2ccccc21, the MIC [1] is reported as 127 µM (≈ 31.9 µg/mL).

In the case of O=C(NNC(=O)c1ccncc1)C(=O)Nc1cc(Cl)ccc1O, the selectivity ratio [2] is reported as 3320, the CC50 at 72 h [3] is reported as 1200 µM and the MIC [4] is reported as 3.1 µM (≈ 1.04 µg/mL). The MIC [1] was 0.37 µM (≈ 0.124 µg/mL).

Work on COC(=O)/C=C1/Oc2ccccc2NC1=O yielded an MIC [1] of 291 µM (≈ 63.8 µg/mL).

With O=C1Oc2ccccc2N/C1=C\C(=O)c1ccc(Cl)cc1 the selectivity ratio [2] was 94, the CC50 at 72 h [3] was 1250 µM and the MIC [1] was 13 µM (≈ 3.9 µg/mL).

Work on O=C1Oc2ccccc2N/C1=C\C(=O)N1CCOCC1 yielded a selectivity ratio [2] of 155, a CC50 at 72 h [3] of 1140 µM and an MIC [4] of 7.3 µM (≈ 2 µg/mL). For the same molecule, the MIC [1] was 7.3 µM (≈ 2 µg/mL).

In the case of COC(=O)/C=C1\Nc2ncccc2OC1=O, the MIC [1] is reported as greater than 217 µM.

In the case of COC(=O)/C=C1\Nc2cc(-c3ccccc3)ccc2OC1=O, the MIC [1] is reported as 145 µM (≈ 42.8 µg/mL).

O=C(NNC(=O)c1ccncc1)C(=O)Nc1ccccc1O showed a selectivity ratio [2] of 3380, a CC50 at 72 h [3] of 1410 µM and an MIC [4] of 3.3 µM (≈ 0.991 µg/mL). For the same molecule, the MIC [1] was 0.42 µM (≈ 0.126 µg/mL).

For O=C1Oc2ccccc2N/C1=C\C(=O)c1ccncc1, the selectivity ratio [2] was greater than 125, the CC50 at 72 h [3] was greater than 1880 µM and the MIC [1] was 15 µM (≈ 3.99 µg/mL).

Molecule COC(=O)/C=C1\Nc2ccc(Cl)cc2OC1=O has a selectivity ratio [2] of 202, a CC50 at 72 h [3] of 1600 µM and an MIC [4] of 3.9 µM (≈ 0.989 µg/mL). The MIC [1] was 7.9 µM (≈ 2 µg/mL).

Molecule O=C1/C(=C/c2ccccc2Cl)Oc2ccccc2N1Cc1ccccc1 has an MIC [1] of 177 µM (≈ 64 µg/mL).

In the case of COC(=O)/C=C1\Nc2cc3ccccc3cc2OC1=O, the MIC [1] is reported as greater than 238 µM.

For O=C1Nc2ccccc2O/C1=C\c1ccccc1Cl, the MIC [1] was 238 µM (≈ 64.7 µg/mL).

NNC(=O)c1ccncc1 [ISONIAZID] gave a selectivity ratio [2] greater than 8000, a CC50 at 72 h [3] greater than 7300 µM and an MIC [4] of 1.8 µM (≈ 0.247 µg/mL). For the same molecule, the MIC [1] was 0.91 µM (≈ 0.125 µg/mL).

COC(=O)/C=C1\Nc2ccccc2OC1O (stereo unspecified) showed an MIC [1] of 289 µM (≈ 63.9 µg/mL).

With O=C1Oc2ccccc2N/C1=C\C(=O)c1cccc(Cl)c1 the selectivity ratio [2] was 120, the CC50 at 72 h [3] was 1610 µM and the MIC [1] was 13 µM (≈ 3.9 µg/mL).
